According to patent US20220193209A1, “COMPOSITIONS AND METHODS FOR REACTIVATING LATENT IMMUNODEFICIENCY VIRUS AND/OR TREATING IMMUNODEFICIENCY VIRUS INFECTION” (The J. David Gladstone institutes, a testamentary trust …, priority 2019, published 2022):

Tests used:
ATF4 = test: Western blot of ATF4 protein in CD4+ T cells; format: cell-based, human; settings: multiple donors
Procedure: Cells were lysed in radioimmunoprecipitation assay buffer (50 mM Tris-HCl, pH 8, 150 mM NaCl, 1% NP-40, 0.5% sodium deoxycholate, and 0.1% SDS, supplemented with protease inhibitor cocktail; Sigma-Aldrich) for 30 min at 4° C. Samples were resuspended in Laemmli buffer for SDS-PAGE. For chemiluminescent detection, enhanced luminol-based chemiluminescent substrate (ECL) and ECL Hyperfilm (Amersham) were used.
The RNA-Seq results were validated by measuring read counts of the selected genes representative of different pathways (FIG. 8, Panel D) as well as by Real-Time Quantitative PCR (RT-qPCR) (FIG. 7, Panel C). […] Upstream regulator analysis identified TRIB3 and ATF4 as the top regulators of AS1842856-induced gene changes (FIG. 7, Panel D).
FIG. 7, Panels A-E, depict marked upregulation of the regulator ATF4 in response to FOXO1 inhibition in primary CD4^+ T cells. FIG. 7, Panel A depicts a volcano plot from the RNA-Seq data comparing CD4^+ T cells treated with 1000 nM AS1842856 versus DMSO control for 48 h. […] FIG. 7, Panel D, depicts analysis of the five top upstream regulators and table with their activation z-scores according to the RNA-Seq data. FIG. 7, Panel E depicts a representative blot of protein expression of dysregulated genes of interest (left) and densitometry analysis (right) was performed from three individual donors.

FOXO4 = target: T1, FOXO4 (Homo sapiens, UniProt P98177); test: Cellular Thermal Shift Assay (CETSA) in K562 cells, FOXO4; format: binding; settings: 1 μM
T1 construct: performed against the FOXO isoforms expressed in K562 cells; endogenous in cells; host or cells: K562
T1 sequence (P98177 whole entry, canonical isoform): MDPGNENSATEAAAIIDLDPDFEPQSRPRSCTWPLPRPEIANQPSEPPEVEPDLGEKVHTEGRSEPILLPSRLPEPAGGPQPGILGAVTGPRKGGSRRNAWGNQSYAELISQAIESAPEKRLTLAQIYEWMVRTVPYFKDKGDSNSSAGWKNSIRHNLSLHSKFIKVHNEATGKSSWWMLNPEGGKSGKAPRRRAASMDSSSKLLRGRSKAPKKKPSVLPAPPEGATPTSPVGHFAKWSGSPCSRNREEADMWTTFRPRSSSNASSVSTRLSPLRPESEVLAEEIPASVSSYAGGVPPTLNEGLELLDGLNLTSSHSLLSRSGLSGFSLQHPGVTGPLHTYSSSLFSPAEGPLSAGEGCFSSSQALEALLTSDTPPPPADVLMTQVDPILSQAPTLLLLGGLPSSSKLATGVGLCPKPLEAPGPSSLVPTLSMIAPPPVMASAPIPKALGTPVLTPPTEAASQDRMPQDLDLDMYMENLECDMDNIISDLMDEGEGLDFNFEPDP
Procedure: K562 cells (ATCC) were maintained in appropriate volume of RPMI medium supplemented with 10% fetal bovine serum (Serum Plus—II, Sigma MO, USA), 100 units/mL penicillin and 100 […] (Corning, VA, USA). Short-term passages (<15) were used for all experiments. For CETSA, K562 cell were freshly seeded the day before the experiment. The day of experiment, equal numbers of cells were counted by Moxi Mini automated cell counter (Orflo) and 0.6×10^6 cells per data point were seeded in T-25 cell culture flasks (VWR, PA, USA) in appropriate volume of culture medium. […] The supernatants were transferred to new microcentrifuge tubes and analyzed by SDS-PAGE followed by immunoblotting analysis. […] Immunoblotting results were subjected to densitometric analysis (Image J) and melting temperatures of FOXO1, FOXO3 and FOXO4 were determined by Prism 7 (GraphPad) using nonlinear least-squares regression fit to Y=100/(1+10^(Log IC50−X)*H), where H=Hill slope (variable). The viability of the cells was assessed in triplicate by trypan blue exclusion.
Whether the effect of AS1842856 was mediated by its interaction with FOXO1 was confirmed. […] AS1842856-FOXO binding was considered ‘positive’ if there was a significant change in the thermal profile of the protein between the presence and the absence of the drug assessed by western blot (FIG. 2, Panel A). […]

[1] = test system: latent HIVNL4-3 Luciferase reporter virus in primary CD4+ T cells; test: Luciferase reporter HIV reactivation in primary CD4+ T cells; format: cell-based, HIV-1; settings: 6 days after infection, increasing concentrations
Procedure: For reactivation of latent HIV-1 provirus, cells were counted and collected as pellets by centrifugation at 1500 rpm for 10 min. Cells were then plated in 96-well U-bottom plates at 1×10^6 per 200 μl in the presence of 30 μM Raltegravir (Santa Cruz Biotechnology) and the indicated activator. Cells were harvested 48 h after stimulation, washed one time with PBS, and lysed in 60 μl of Passive Lysis Buffer (Promega). After 15 min of lysis, the luciferase activity in cell extracts was quantified with a Perkin Elmer EnSpire 2300 Multimode plate reader after mixing 20 μl of lysate with 100 μl of substrate (Luciferase Assay System-Promega). Relative light units (RLU) were normalized to protein content determined by Bradford assay (BioRad). Data represent average (±SD) of three technical replicates per donor. Cell viability was measured with CellTiter-Blue Cell Viability Assay (Promega).
HIV reactivation was measured by luciferase activity and cell viability by flow cytometry.

**Q.** For `CCn1cc(C(=O)O)c(=O)c2c(N)c(F)c(NC3CCCCC3)cc21` [AS1842856, 5-amino-7-(cyclohexylamino)-1-ethyl-6-fluoro-4-oxo-1,4-dihydro-quinoline-3-carboxylic acid], which ATF4 protein levels (ATF4) is on record?
**A.** Its ATF4 protein levels is “increased expression”.

**Q.** What about the “change in FOXO4 melting curve” value (FOXO4) of the same molecule?
**A.** The value was “no changes”.

**Q.** And the “luciferase expression (HIV reactivation)” value [1]?
**A.** The value was “reactivated luciferase expression”.
